# Experimental data reported in patent US9737073B2, “Herbicidal weed control from combinations of fluroxypyr and ALS inhibitors” (Dow AgroSciences LLC, priority 2014, dated 2017).
# Legend:
# Type in all cases: in vivo
# [1] = system: Abutilon theophrasti (velvetleaf, ABUTH); experiment: Postemergence herbicidal weed control, fluroxypyr-meptyl and chlorimuron-ethyl, field trials (Table 3)
# Procedure: (§1) Seeds of the desired test plant species were planted in a peat-based potting soil, Metro-Mix 360® in plastic pots with a surface area of 128 square centimeters (cm^2). Metro-Mix 360® consists of formulated Canadian sphagnum peat moss, coarse perlite, bark ash, a starter nutrient charge (with gypsum), a slow-release nitrogen and dolomitic limestone. The plants were grown for 7-19 days in a greenhouse with an approximate 14-hour (h) photoperiod which was maintained at about 29° C. during the day and 26° C. during the night. Nutrients and water were added on a regular basis and supplemental lighting was provided with overhead metal halide 1000-Watt lamps as necessary. The plants were treated with postemergence foliar applications when they reached the third to fourth true leaf stage. All treatments were applied using a randomized complete block trial design, with 4 replications per treatment.
# (§2) Treatments consisted of the compounds as listed in Tables 1 to 4, each compound applied alone and in combination. Commercially formulated products of fluroxypyr-meptyl (STARANE™, 333 grams acid equivalent per liter (g ae/L) EC), diclosulam (SPIDER® 84WG), cloransulam-methyl (FIRSTRATE™ 84WG), chlorimuron-ethyl (CLASSIC® 25WG) and thifensulfuron-methyl (HARMONY® 50SG). Formulated amounts of fluroxypyr-meptyl, diclosulam, cloransulam-methyl, chlorimuron-ethyl and thifensulfuron-methyl were placed in 60 milliliter (mL) glass vials and dissolved in a volume of 30 or 60 mL of a water solution containing Agri-dex crop oil concentrate in a 1% volume per volume (v/v) ratio. Compound requirements are based upon either a 30- or a 60-mL application volume at a rate of 200 liters per hectare (L/ha). Spray solutions of the mixtures were prepared by adding the stock solutions to the appropriate amount of dilution solution to form either a 30- or a 60-mL spray solution with active ingredients in single and two-way combinations. Formulated compounds were applied to the plant material with an overhead Generation III Research Sprayer manufactured by DeVries Manufacturing in Hollandale, Minn., USA. The track sprayer was equipped with an 8003E nozzle calibrated to deliver 200 L/ha at a spray height of 18 inches (43 centimeters (cm)) above average plant canopy.
# (§3) The treated plants and untreated control plants were placed in a greenhouse as described above and watered by sub-irrigation to prevent wash-off of the test compounds.
# (§4) Treatments were rated at 7 to 21 days after application (DAA) as compared to the untreated control plants. Visual weed control was scored on a scale of 0 to 100 percent where 0 corresponds to no injury and 100 corresponds to complete kill.
# (§5) Field trials were conducted using standard herbicide small plot research methodology. Plots varied from 3×3.3 meter (m) to 4.5×10 m (width×length) with 4 replicates per treatment. The crops used in the field trials were grown using normal cultural practices for land preparation, fertilization, seeding and maintenance to ensure good growth of the crop and the weeds.
# (§6) All treatments in the field trials were applied using either pressurized air or carbon dioxide (CO2) backpack or bicycle sprayers calibrated to apply 100-187 L/ha spray volume. Flat Fan spray nozzles were used in all trials, with water as the diluent applied at 275-300 kilopascals (kPa). Weed sizes at application ranged from 10 to 40 cm tall. Commercially available products of fluroxypyr-meptyl (STARANE™, 180 and 333 g ae/L EC), diclosulam (SPIDER® 84WG), and thifensulfuron-methyl (HARMONY® 75WG) were mixed in water at appropriately formulated product rates to achieve the desired rates based on a unit area of application (hectare) to achieve the desired rates as shown. No adjuvants were tank-mixed with any treatments applied in the field trials. Treatments were rated at 14-26 days after application as compared to the untreated control plants. […]
# [2] = system: Amaranthus rudis Sauer (common waterhemp, AMATA); experiment: as above
# Procedure: as §1, §2, §3, §4, §5, §6
# [3] = system: Abutilon theophrasti (velvetleaf, ABUTH); experiment: Postemergence herbicidal weed control, fluroxypyr-meptyl and cloransulam-methyl, field trials (Table 2)
# Procedure: as §1, §2, §3, §4, §5, §6
# [4] = system: Amaranthus rudis Sauer (common waterhemp, AMATA); experiment: as above
# Procedure: as §1, §2, §3, §4, §5, §6
# [5] = system: Chenopodium album (common lambsquarters, CHEAL); experiment: as above
# Procedure: as §1, §2, §3, §4, §5
# as §6, with “[…] Visual weed control was scored on a scale of 0” for “Treatments were rated at 14-26 days after application as compared”, “100 percent where 0 corresponds to no injury and 100 corresponds to complete kill.” for “the untreated control plants.”
# [6] = system: Commelina benghalensis (tropical spiderwort, COMBE); experiment: Postemergence herbicidal weed control, fluroxypyr-meptyl and diclosulam, greenhouse trials (Table 1)
# Procedure: as §5
# (§7) All treatments in the field trials were applied using either pressurized air or carbon dioxide (CO2) backpack or bicycle sprayers calibrated to apply 100-187 L/ha spray volume. Flat Fan spray nozzles were used in all trials, with water as the diluent applied at 275-300 kilopascals (kPa). Weed sizes at application ranged from 10 to 40 cm tall. Commercially available products of fluroxypyr-meptyl (STARANE™, 180 and 333 g ae/L EC), diclosulam (SPIDER® 84WG), and thifensulfuron-methyl (HARMONY® 75WG) were mixed in water at appropriately formulated product rates to achieve the desired rates based on a unit area of application (hectare) to achieve the desired rates as shown. No adjuvants were tank-mixed with any treatments applied in the field trials. Treatments were rated at 14-26 days after application as compared to the untreated control plants. Visual weed control was scored on a scale of 0 to 100 percent where 0 corresponds to no injury and 100 corresponds to complete kill.
# (§8) The treated plots and control plots were rated blind at various intervals after application. Ratings were reported on a Percent (%) Visual Control basis, where 0 corresponds to no visual effect/weed control and 100 corresponds to complete kill of the target weeds.
# (§9) Colby's equation was used to determine the herbicidal effects expected from the mixtures (Colby, S. R. Calculation of the synergistic and antagonistic response of herbicide combinations. Weeds 196715, 20-22). A t-test (alpha=0.05) between Colby predictions and observed combinations was used to test for significant differences indicating synergy or antagonism. The results presented in the Tables were significant according to the described criteria.
# (§10) The following equation was used to calculate the expected activity of mixtures containing two active ingredients, A and B: Expected=A+B−(A×B/100) • A=observed efficacy of active ingredient A at the same concentration as used in the mixture; • B=observed efficacy of active ingredient B at the same concentration as used in the mixture.
# [7] = system: Sida cordifolia L. (heartleaf sida, SIDCO); experiment: as above; details: 14DAA1, 25.2 g ai/ha
# Procedure: as §1
# Treatments consisted of the compounds as listed in Tables 1 to 4, each compound applied alone and in combination. […]
# Treatments were rated at 7 to 21 days after application (DAA) as compared to the untreated control plants. Visual weed control was scored on a scale of 0 to 100 percent where 0 corresponds to no injury and 100 corresponds to complete kill. […]
# [8] = system: Abutilon theophrasti (velvetleaf, ABUTH); experiment: as above
# Procedure: as §1, §2, §3, §4, §9, §10
# [9] = system: Chenopodium album (common lambsquarters, CHEAL); experiment: as above
# Procedure: as §1, §2, §3, §4, §9, §10
# [10] = system: Amaranthus rudis Sauer (common waterhemp, AMATA); experiment: as above
# Procedure: as §1, §2, §3, §4, §9, §10
# [11] = system: Polygonum convolvulus L. (wild buckwheat, POLCO); experiment: Postemergence herbicidal weed control, fluroxypyr-meptyl and thifensulfuron-methyl, field trials (Table 4); details: 21DAA1, 13.0 g ai/ha
# Procedure: as §5, §7, §8, §9, §10
# [12] = system: Amaranthus retroflexus L. (redroot pigweed, AMARE); experiment: as above; details: 21DAA1, 13.0 g ai/ha
# Procedure: as §5, §7, §8, §9, §10
# [13] = system: Chenopodium album (common lambsquarters, CHEAL); experiment: as above; details: 21DAA1, 13.0 g ai/ha
# Procedure: as §5, §7, §8, §9, §10
# [14] = system: Abutilon theophrasti (velvetleaf, ABUTH); experiment: as above
# Procedure: as §1, §2, §3, §4, §5
# (§11) All treatments in the field trials were applied using either pressurized air or carbon dioxide (CO2) backpack or bicycle sprayers calibrated to apply 100-187 L/ha spray volume. Flat Fan spray nozzles were used in all trials, with water as the diluent applied at 275-300 kilopascals (kPa). Weed sizes at application ranged from 10 to 40 cm tall. […]
# [15] = system: Amaranthus palmeri S. Wats. (Palmer amaranth, AMAPA); experiment: as above; details: 7DAA1, 2.2 g ai/ha
# Procedure: as §1, §2, §3, §4, §5, §11
compound,measurement,setting,value
"CCOC(=O)c1ccccc1S(=O)(=O)NC(=O)Nc1nc(Cl)cc(OC)n1 [Chlorimuron-ethyl, ethyl 2-[[[[(4-chloro-6-methoxy-2-pyrimidinyl)amino]carbonyl]amino]-sulfonyl]benzoate]",Chlorimuron-ethyl Mean % weed control,"[1]; 14DAA1, 1.1 g ai/ha",56.3%
same,Chlorimuron-ethyl Mean % weed control,"[1]; 14DAA1, 2.2 g ai/ha",62.5%
same,Chlorimuron-ethyl Mean % weed control,"[2]; 7DAA1, 8.8 g ai/ha",41.3%
same,Chlorimuron-ethyl Mean % weed control,"[2]; 14DAA1, 8.8 g ai/ha",28.8%
"CCOc1nc(F)cc2nc(S(=O)(=O)Nc3c(Cl)cccc3C(=O)OC)nn12 [Cloransulam-methyl, methyl 3-chloro-2-[[(5-ethoxy-7-fluoro[1,2,4]triazolo[1,5-c]pyrimidin-2-yl)sulfonyl]amino]benzoate]",Cloransulam-methyl Mean % weed control,"[3]; 14DAA1, 1.1 g ai/ha",38.3%
same,Cloransulam-methyl Mean % weed control,"[3]; 14DAA1, 4.4 g ai/ha",70.0%
same,Cloransulam-methyl Mean % weed control,"[3]; 21DAA1, 1.1 g ai/ha",40.0%
same,Cloransulam-methyl Mean % weed control,"[3]; 21DAA1, 4.4 g ai/ha",70.0%
same,Cloransulam-methyl Mean % weed control,"[4]; 8DAA1, 4.4 g ai/ha",58.8%
same,Cloransulam-methyl Mean % weed control,"[4]; 14DAA1, 4.4 g ai/ha",38.8%
same,Cloransulam-methyl Mean % weed control,"[4]; 21DAA1, 4.4 g ai/ha",37.5%
same,Cloransulam-methyl Mean % weed control,"[5]; 8DAA1, 4.4 g ai/ha",35.0%
same,Cloransulam-methyl Mean % weed control,"[5]; 14DAA1, 1.1 g ai/ha",16.7%
same,Cloransulam-methyl Mean % weed control,"[5]; 14DAA1, 4.4 g ai/ha",11.7%
same,Cloransulam-methyl Mean % weed control,"[5]; 21DAA1, 1.1 g ai/ha",8.3%
same,Cloransulam-methyl Mean % weed control,"[5]; 21DAA1, 4.4 g ai/ha",11.0%
same,Cloransulam-methyl Mean % weed control,"[5]; 21DAA1, 8.8 g ai/ha",10.0%
"CCOc1nc(F)cc2nc(S(=O)(=O)Nc3c(Cl)cccc3Cl)nn12 [Diclosulam, N-(2,6-dichlorophenyl)-5-ethoxy-7-fluoro[1,2,4]triazolo[1,5-c]pyrimidine-2-sulfonamide]",Diclosulam Mean % weed control,"[6]; 14DAA1, 25.2 g ai/ha",41.3%
same,Diclosulam Mean % weed control,"[6]; 26DAA1, 25.2 g ai/ha",17.5%
same,Diclosulam Mean % weed control,[7],23.3%
same,Diclosulam Mean % weed control,"[8]; 14DAA1, 1.1 g ai/ha",28.8%
same,Diclosulam Mean % weed control,"[8]; 21DAA1, 1.1 g ai/ha",30.0%
same,Diclosulam Mean % weed control,"[9]; 8DAA1, 8.8 g ai/ha",38.3%
same,Diclosulam Mean % weed control,"[9]; 14DAA1, 2.2 g ai/ha",3.3%
same,Diclosulam Mean % weed control,"[9]; 14DAA1, 8.8 g ai/ha",21.7%
same,Diclosulam Mean % weed control,"[9]; 21DAA1, 2.2 g ai/ha",5.0%
same,Diclosulam Mean % weed control,"[9]; 21DAA1, 4.4 g ai/ha",16.7%
same,Diclosulam Mean % weed control,"[9]; 21DAA1, 8.8 g ai/ha",31.7%
same,Diclosulam Mean % weed control,"[10]; 8DAA1, 8.8 g ai/ha",51.3%
same,Diclosulam Mean % weed control,"[10]; 14DAA1, 4.4 g ai/ha",28.8%
same,Diclosulam Mean % weed control,"[10]; 14DAA1, 8.8 g ai/ha",27.5%
same,Diclosulam Mean % weed control,"[10]; 21DAA1, 4.4 g ai/ha",25.0%
same,Diclosulam Mean % weed control,"[10]; 21DAA1, 8.8 g ai/ha",28.8%
"COC(=O)c1sccc1S(=O)(=O)NC(=O)Nc1nc(C)nc(OC)n1 [Thifensulfuron-methyl, methyl 3-[[[[(4-methoxy-6-methyl-1,3,5-triazin-2-yl)amino]carbonyl]amino]sulfonyl]-2-thiophenecarboxylate]",Thifensulfuron-methyl Mean % weed control,[11],90.0%
same,Thifensulfuron-methyl Mean % weed control,[12],90.0%
same,Thifensulfuron-methyl Mean % weed control,[13],90.0%
same,Thifensulfuron-methyl Mean % weed control,"[14]; 14DAA1, 0.6 g ai/ha",56.3%
same,Thifensulfuron-methyl Mean % weed control,"[14]; 14DAA1, 1.1 g ai/ha",73.8%
same,Thifensulfuron-methyl Mean % weed control,[15],22.5%
